Patent US12396995B2, “Substituted 4-aminoisoindoline-1,3-dione compounds and second active agents for combined use” (Celgene Corporation, priority 2019, dated 2025)

Tests used:
[1] = test system: WSU-DLCL2 DLBCL xenograft tumors; experiment: WSU-DLCL2 (DLBCL) xenograft model, Compound 1 alone and with 5-azacytidine; format: in vivo, female SCID mice
Experimental: Anti-tumor activity of Compound 1 alone and in combination with 5-azacytidine was studies in WSU-DLCL2 (DLBCL) xenograft model. Compound 1 (1 mg/kg) was administered once daily for 5 consecutive days followed by 2 days off (5 D on/2 D off) and 5-azacytidine (1 mg/kg) was administered once daily (QD). Compound 1 (1 mg/kg, 5 D on/2 D off) and 5-azacytidine (1 mg/kg, QD) inhibited WSU-DLCL2 DLBCL tumor growth.
Methods: Xenograft study was conducted with female SCID mice bearing WSU-DLCL2 DLBCL xenograft tumors. Female SCID mice were inoculated subcutaneously with WSU-DLCL2 cells in the flank region above the right hind leg. Following inoculation of animals, the tumors were allowed to grow to approximately 200 mm^3 prior to randomization. On day 14 following tumor cell inoculation, the mice bearing WSU-DLCL2 tumors ranging between 150 and 250 mm^3 were pooled together and randomized into various treatment groups. Compound 1 was formulated in 0.5% Methyl Cellulose, 0.25% Tween 80 and 50 mM Citrate pH 3 in water. 5-Azacytidine was formulated in 0.9% saline. Compound 1 (1 mg/kg) was orally administered with three cycles of once daily for 5 consecutive days followed by 2 days off starting from day 14 after tumor cell inoculation. […] Tumors were measured twice a week using calipers and tumor volumes were calculated using the formula of W^2×L/2. […]

[2] = test system: WSU-DLCL2 DLBCL xenograft tumors; experiment: WSU-DLCL2 (DLBCL) xenograft model, Compound 1 alone and with tazemetostat; format: in vivo, female SCID mice
Experimental: Anti-tumor activity of Compound 1 alone and in combination with tazemetostat was studied in WSU-DLCL2 (DLBCL) xenograft model. Compound 1 (1 mg/kg) was administered once daily for 5 consecutive days followed by 2 days off (5 D on/2 D off) and tazemetostat (200 mg/kg) was administered twice daily (BID).
Methods: Xenograft study was conducted with female SCID mice bearing WSU-DLCL2 DLBCL xenograft tumors. Female SCID mice were inoculated subcutaneously with WSU-DLCL2 cells in the flank region above the right hind leg. Following inoculation of animals, the tumors were allowed to grow to approximately 200 mm^3 prior to randomization. On day 14 following tumor cell inoculation, the mice bearing WSU-DLCL2 tumors ranging between 150 and 250 mm^3 were pooled together and randomized into various treatment groups. Compound 1 was formulated in 0.5% Methyl Cellulose, 0.25% Tween 80 and 50 mM Citrate pH 3 in water. Tazemetostat was formulated in CMC-Tween. Compound 1 (1 mg/kg) was orally administered with three cycles of once daily for 5 consecutive days followed by 2 days off starting from day 14 after tumor cell inoculation. Tazemetostat 200 mg/kg) was orally administered twice day (BID) for three weeks. In combination group the animals received Compound 1 (1 mg/kg/5 D on/2 D off) and tazemetostat (200 mg/kg, BID) simultaneously for three weeks starting from day 14 after tumor cell inoculation. Tumors were measured twice a week using calipers and tumor volumes were calculated using the formula of W^2×L/2. Statistical analysis was performed using a one-way or 2-way analysis of variance (ANOVA). Synergy calculations were performed using fractional product method.

[3] = test system: primary CLL cells (CD5+CD19+ tumor cells); experiment: Ex vivo apoptosis of B-cell CLL patient cells, Compound 1 with ibrutinib (flow cytometry, Caspase 3); format: cell-based, human; settings: 144 hrs
Experimental: After 144 hrs of treatment with both the agents, flow cytometric analysis was used to determine the number of tumor cells that were viable or apoptotic.
The tumor cell count was assessed by staining the patient PBMCs in each condition with tumor cell surface markers CD5 & CD19 along with Live/Dead fixable dye to exclude the dead cells and followed by intracellular staining for Caspase3 antibody to identify the apoptotic cells and was measured by flow cytometry (Attune NxT, Thermo Fisher). The live tumor cell count for each condition was calculated by normalizing to the precision count beads added to each sample.
For apoptosis analysis, the percentage of apoptosis combining both “early” (Caspase 3 positive and Live-Dead fixable dye negative) and “late” apoptosis (Caspase 3 and Live-Dead fixable dye positive) cell gates subtracting the baseline DMSO value was graphed using GraphPad Prism 8.0.0.0. The Ymax (maximal percentage of apoptosis achieved) values from apoptosis curves were calculated by performing a nonlinear regression curve fitting using log(agonist) vs. normalized response—Variable slope analysis and identifying the maximum value on GraphPad Prism 8.0.0 (Table 9).

Compound: O=C1CC[C@H](N2C(=O)c3cccc(NCc4ccc(CN5CC(N6CCOCC6)C5)cc4F)c3C2=O)C(=O)N1 [Compound 1, (S)-2-(2,6-dioxopiperidin-3-yl)-4-((2-fluoro-4-((3-morpholinoazetidin-1-yl)methyl)benzyl)amino)isoindoline-1,3-dione]
- combination antitumor activity (fractional product method) ([1]; Compound 1 1 mg/kg and 5-azacytidine 1 mg/kg): synergistic
- tumor volume reduction compared to vehicle control ([1]; Compound 1 1 mg/kg in combination with 5-azacytidine 1 mg/kg): 74%
- combination antitumor activity (fractional product method) ([2]; Compound 1 1 mg/kg and tazemetostat 200 mg/kg): synergistic
- tumor volume reduction compared to vehicle control ([2]; Compound 1 1 mg/kg in combination with tazemetostat 200 mg/kg): 93.7%
- inhibition of tumor growth ([2]; single agent Compound 1 1 mg/kg oral, 5 D on/2 D off, three cycles): −45.6%
- Ymax of Pt 11 (%), maximal apoptosis ([3]; DMSO + Cpd1 DRC (no ibrutinib)): 14.40%
- Ymax of Pt 12 (%), maximal apoptosis ([3]; DMSO + Cpd1 DRC (no ibrutinib)): 14.19%
- Ymax of Pt 13 (%), maximal apoptosis ([3]; DMSO + Cpd1 DRC (no ibrutinib)): 36.93%
- Ymax of Pt 14 (%), maximal apoptosis ([3]; DMSO + Cpd1 DRC (no ibrutinib)): 17.21%
- Ymax of Pt 11 (%), maximal apoptosis ([3]; ibrutinib 0.001 uM + Cpd1 DRC): 19.80%
- Ymax of Pt 12 (%), maximal apoptosis ([3]; ibrutinib 0.001 uM + Cpd1 DRC): 15.67%
- Ymax of Pt 13 (%), maximal apoptosis ([3]; ibrutinib 0.001 uM + Cpd1 DRC): 26.75%
- Ymax of Pt 14 (%), maximal apoptosis ([3]; ibrutinib 0.001 uM + Cpd1 DRC): 17.87%
- Ymax of Pt 11 (%), maximal apoptosis ([3]; ibrutinib 0.01 uM + Cpd1 DRC): 18.66%
- Ymax of Pt 12 (%), maximal apoptosis ([3]; ibrutinib 0.01 uM + Cpd1 DRC): 13.66%
- Ymax of Pt 13 (%), maximal apoptosis ([3]; ibrutinib 0.01 uM + Cpd1 DRC): 30.53%
- Ymax of Pt 14 (%), maximal apoptosis ([3]; ibrutinib 0.01 uM + Cpd1 DRC): 18.30%
- Ymax of Pt 11 (%), maximal apoptosis ([3]; ibrutinib 0.1 uM + Cpd1 DRC): 12.33%
- Ymax of Pt 12 (%), maximal apoptosis ([3]; ibrutinib 0.1 uM + Cpd1 DRC): 17.47%
- Ymax of Pt 13 (%), maximal apoptosis ([3]; ibrutinib 0.1 uM + Cpd1 DRC): 32.49%
- Ymax of Pt 14 (%), maximal apoptosis ([3]; ibrutinib 0.1 uM + Cpd1 DRC): 13.59%
- Ymax of Pt 11 (%), maximal apoptosis ([3]; ibrutinib 1 uM + Cpd1 DRC): 19.73%
- Ymax of Pt 12 (%), maximal apoptosis ([3]; ibrutinib 1 uM + Cpd1 DRC): 22.48%
- Ymax of Pt 13 (%), maximal apoptosis ([3]; ibrutinib 1 uM + Cpd1 DRC): 29.70%
- Ymax of Pt 14 (%), maximal apoptosis ([3]; ibrutinib 1 uM + Cpd1 DRC): 17.65%
- Ymax of Pt 11 (%), maximal apoptosis ([3]; ibrutinib 10 uM + Cpd1 DRC): 29.73%
- Ymax of Pt 12 (%), maximal apoptosis ([3]; ibrutinib 10 uM + Cpd1 DRC): 24.18%
- Ymax of Pt 13 (%), maximal apoptosis ([3]; ibrutinib 10 uM + Cpd1 DRC): 35.37%
- Ymax of Pt 14 (%), maximal apoptosis ([3]; ibrutinib 10 uM + Cpd1 DRC): 19.33%
